The results in this text go back to US11155517B2, “4-substituted phenylamine derivatives and their use to protect crops by fighting undesired phytopathogenic micoorganisms” (PI INDUSTRIES LTD., priority 2016, dated 2021).

One experiment deals with Septoria lycopersici. The experiment can be described thus: Septoria lycopersici (leaf spot of tomato) in vitro test, radial growth on Potato Dextrose Agar. The settings on record: 168 h, seven days, 25° C., read-out: % control compared to the untreated check (radial growth). It counts as cell-based.
Experiment [1] relates to Pyricularia oryzae. The experiment can be described thus: microbe, parasite or virus in culture. Format: cell-based. Conditions: 168 h, read-out: % control compared to the untreated check (radial growth).
The subject of experiment [2] is Alternaria solani. The experiment can be described thus: Greenhouse Alternaria solani test in tomato, preventive. The settings on record: 24 h, tomato plants sprayed one day before inoculation, read-out: Efficacy (% control), disease severity vs untreated check. Format: in vivo. As to the method:
Compounds were dissolved in 2% DMSO/Acetone & then mixed with water to calibrated spray volume of 50 ml. This 50 ml spray solution was poured into the spray bottles for further applications. To test the preventive activity of compounds, healthy young Tomato plants raised in the greenhouse were sprayed with active compound preparation at the stated application rates inside the spray cabinets using hallowcone nozzles. One day after treatment, the plants were inoculated with spore suspension (2% Malt) containing 0.24×10^6 Alternaria solani inoculum. The inoculated plants were then kept in greenhouse chamber at 22-24° C. temperature and 90-95% relative humidity for disease expression. […] Efficacy (% control) of the compounds was calculated by comparing the disease rating in the treatment with untreated control. The sprayed plants were also assessed for compound's phytotoxic effects by recording symptoms like necrosis, chlorosis and stunting.

A further experiment deals with Botrytis cinerea. The experiment can be described thus: Botrytis cinerea (gray mold) in vitro test, radial growth on Potato Dextrose Agar. The settings on record: 168 h, 300 ppm, seven days, 22° C., read-out: % (control) compared to the untreated check (radial growth). Format: cell-based.
For experiment [3], the system named is Alternaria solani. The experiment can be described thus: Alternaria solani (early blight of tomato/potato) in vitro test, radial growth on Potato Dextrose Agar. It counts as cell-based. The settings on record: 168 h, 300 ppm, seven days, 25° C., read-out: % control compared to the untreated check (radial growth).
The test system of the next experiment is Botrytis cinera. The experiment can be described thus: Greenhouse Botrytis cinera test in tomato, preventive. It counts as in vivo. The settings on record: 24 h, plants sprayed one day before inoculation, read-out: Efficacy (% control), disease severity vs untreated check.
Experiment [4] deals with Fusarium culmorum. The experiment can be described thus: Fusarium culmorum (foot rot of cereals) in vitro test, radial growth on Potato Dextrose Agar. It counts as cell-based. The settings on record: Fusarium culmorum, 168 h, read-out: % control compared to the untreated check (radial growth).
For the next experiment, the system named is Colletotrichum capsici. The experiment can be described thus: Colletotrichum capsici (anthracnose) in vitro test, radial growth on Potato Dextrose Agar. Format: cell-based. Conditions: Colletotrichum truncatum, 168 h; 300 ppm; seven days, 25° C.; read-out: % control compared to the untreated check (radial growth).
In the next experiment the test system is Rhizoctonia solani. In words: Rhizoctonia solani (rice sheath blight/potato black scurf) in vitro test, radial growth on Potato Dextrose Agar. Format: cell-based. Conditions: 168 h, 300 ppm, seven days, 25° C., read-out: % control compared to the untreated check (radial growth).
Experiment [5] has as its system Pyricularia oryzae. The experiment can be described thus: whole plant or invertebrate. Conditions: 24 h, read-out: Efficacy (% control), disease severity vs untreated check. It counts as in vivo.
Experiment [6] deals with Fusarium culmorum. The experiment can be described thus: Greenhouse Fusarium culmorum test in wheat, preventive. The settings on record: 24 h, read-out: Efficacy (% control), disease severity vs untreated check. Format: in vivo. As for the experimental part: Compounds were dissolved in 2% DMSO/Acetone & then mixed with water to calibrated spray volume of 50 ml. This 50 ml spray solution was poured into the spray bottles for further applications.
To test the preventive activity of compounds, healthy young wheat plants raised in the greenhouse were sprayed with active compound preparation at the stated application rates inside the spray cabinets using hallowcone nozzles. One day after treatment, the plants were inoculated with spore suspension (2% Malt) containing 2×10^6 Fusarium culmorum inoculum. The inoculated plants were then kept in greenhouse chamber at 24° C. temperature and 80-90% relative humidity for disease expression.
A visual assessment of compound's performance was carried by rating the disease severity (0-100% scale) on treated plants on 3, 7, 10 and 15 days after application. Efficacy (% control) of the compounds was calculated by comparing the disease rating in the treatment with untreated control. The sprayed plants were also assessed for compound's phytotoxic effects by recording symptoms like necrosis, chlorosis and stunting.

For the molecule `CCN(C)C=Nc1cc(C)c(Cc2ccc(C)cc2)cc1C` [Compound 9, N′-(2,5-dimethyl-4-(4-methylbenzyl)phenyl)-N-ethyl-N-methylformimidamide], the inhibition of growth at 300 ppm in the experiment with Septoria lycopersici was above 70%; with Pyricularia oryzae [1], above 75%; in the experiment on Botrytis cinerea it was above 80%; with Alternaria solani [3] it was above 75%; in the experiment with Fusarium culmorum [4] it was 75%; in the experiment with Colletotrichum capsici, above 80%. In the experiment on Rhizoctonia solani, the inhibition of growth at 300 ppm is above 80%. Also, the pest or weed control at 500 ppm in the experiment with Alternaria solani [2] and in the experiment with Botrytis cinera was 70 to 100% each time.
`CCN(C)C=Nc1cc(C)c(Cc2cccc(F)c2)cc1C` [Compound 29, N-ethyl-N′-(4-(3-fluorobenzyl)-2,5-dimethylphenyl)-N-methylformimidamide]: the inhibition of growth at 300 ppm in the experiment on Septoria lycopersici was above 70%; in the experiment on Pyricularia oryzae [1], above 75%; with Botrytis cinerea, above 80%; with Alternaria solani [3], above 75%; with Fusarium culmorum [4] it was 75%; in the experiment on Colletotrichum capsici it was above 80%. Moreover, in the experiment with Rhizoctonia solani, the inhibition of growth at 300 ppm was above 80%. Moreover, the pest or weed control at 500 ppm in the experiment with Alternaria solani [2] and with Botrytis cinera was 70 to 100% throughout.
For the molecule `CCN(C)C=Nc1cc(Cl)c(Cc2cccc(F)c2)cc1Cl` [Compound 148, N′-(2,5-dichloro-4-(3-fluorobenzyl)phenyl)-N-ethyl-N-methylformimidamide], the inhibition of growth at 300 ppm in the experiment on Pyricularia oryzae [1] and in the experiment on Alternaria solani [3] was above 75% in each case. The pest or weed control at 500 ppm in the experiment with Pyricularia oryzae [5] was in the range of 70 to 100%.
As to `Cc1cc(N=CN2CCCCC2)c(C)cc1Cc1ccc(F)c(Cl)c1` [Compound 35, N-(4-(3-chloro-4-fluorobenzyl)-2,5-dimethylphenyl)-1-(piperidin-1-yl)methanimine], the inhibition of growth at 300 ppm was above 70% with Septoria lycopersici; above 75% in the experiment with Pyricularia oryzae [1]; above 80% in the experiment with Botrytis cinerea; above 75% with Alternaria solani [3]; above 80% in the experiment on Colletotrichum capsici; above 80% in the experiment with Rhizoctonia solani. In addition, the pest or weed control at 500 ppm in the experiment with Alternaria solani [2] and in the experiment on Fusarium culmorum [6] was 70 to 100% in each case.
In the case of `CNC=Nc1cc(C)c(Cc2cccc(Br)c2F)cc1C` [Compound 41, N′-(4-(3-bromo-2-fluorobenzyl)-2,5-dimethylphenyl)-N-methylformimidamide], the inhibition of growth at 300 ppm with Septoria lycopersici was above 70%; in the experiment with Pyricularia oryzae [1], above 75%; with Botrytis cinerea, above 80%; in the experiment on Alternaria solani [3] it was above 75%; in the experiment with Fusarium culmorum [4] it was 75%; in the experiment with Colletotrichum capsici, above 80%. Further, the inhibition of growth at 300 ppm in the experiment with Rhizoctonia solani is above 80%. For the same molecule, the pest or weed control at 500 ppm in the experiment on Alternaria solani [2] and in the experiment on Fusarium culmorum [6] was 70 to 100% each time.
Consider `CCN(C)C=Nc1cc(C)c(Cc2ccccc2C)cc1C` [Compound 32, N′-(2,5-dimethyl-4-(2-methylbenzyl)phenyl)-N-ethyl-N-methylformimidamide], for which the inhibition of growth at 300 ppm was above 70% in the experiment on Septoria lycopersici; above 75% with Pyricularia oryzae [1]; above 80% in the experiment on Botrytis cinerea; above 75% in the experiment on Alternaria solani [3]; 75% with Fusarium culmorum [4]; above 80% in the experiment on Colletotrichum capsici. The inhibition of growth at 300 ppm in the experiment with Rhizoctonia solani is above 80%. Further, the pest or weed control at 500 ppm with Alternaria solani [2], with Botrytis cinera and in the experiment with Fusarium culmorum [6] was 70 to 100% each time.
Regarding `CNC=Nc1cc(C)c(Cc2cccc(F)c2)cc1Cl` [Compound 42, N′-(2-chloro-4-(3-fluorobenzyl)-5-methylphenyl)-N-methylformimidamide], the inhibition of growth at 300 ppm with Septoria lycopersici was above 70%; in the experiment with Pyricularia oryzae [1], above 75%; in the experiment on Botrytis cinerea, above 80%; with Alternaria solani [3], above 75%; in the experiment on Fusarium culmorum [4] it was 75%; in the experiment with Colletotrichum capsici, above 80%. Besides, the inhibition of growth at 300 ppm in the experiment with Rhizoctonia solani was above 80%. Also, the pest or weed control at 500 ppm with Alternaria solani [2] and in the experiment with Fusarium culmorum [6] was 70 to 100% in each case.
Take `CCN(C)C=Nc1cc(C)c(Cc2cc(Cl)ccc2Cl)cc1C` [Compound 160, N′-(4-(2,5-dichlorobenzyl)-2,5-dimethylphenyl)-N-ethyl-N-methylformimidamide]: the inhibition of growth at 300 ppm was above 70% with Septoria lycopersici; above 75% in the experiment with Pyricularia oryzae [1]; above 80% in the experiment on Botrytis cinerea; above 75% in the experiment with Alternaria solani [3]; 75% in the experiment with Fusarium culmorum [4]; above 80% in the experiment with Colletotrichum capsici. Further, the inhibition of growth at 300 ppm in the experiment with Rhizoctonia solani is above 80%. The pest or weed control at 500 ppm in the experiment with Alternaria solani [2] and with Fusarium culmorum [6] was 70 to 100% throughout.
Consider `CCN(C)C=Nc1cc(C)c(Cc2cc(F)cc(Cl)c2)cc1C` [Compound 135, N′-(4-(3-chloro-5-fluorobenzyl)-2,5-dimethylphenyl)-N-ethyl-N-methylformimidamide], for which the inhibition of growth at 300 ppm in the experiment with Septoria lycopersici is above 70%; in the experiment with Pyricularia oryzae [1] it was above 75%; in the experiment on Botrytis cinerea, above 80%; in the experiment with Alternaria solani [3], above 75%; in the experiment with Colletotrichum capsici, above 80%; in the experiment with Rhizoctonia solani, above 80%. Further, in the experiment with Pyricularia oryzae [5], the pest or weed control at 500 ppm was 70 to 100%.
Regarding `CCN(C)C=Nc1cc(C)c(/C(=N\C)c2ccccc2)cc1C` [Compound 31, N′-(2,5-dimethyl-4-((Z)-(methylimino)(phenyl)methyl)phenyl)-N-ethyl-N-methylformimidamide], the inhibition of growth at 300 ppm in the experiment on Septoria lycopersici was above 70%; with Pyricularia oryzae [1], above 75%; with Alternaria solani [3] it was above 75%; with Fusarium culmorum [4], 75%; with Rhizoctonia solani, above 80%. In addition, the pest or weed control at 500 ppm with Alternaria solani [2] and in the experiment with Botrytis cinera was 70 to 100% each time.
Take `CCN(C)C=Nc1cc(C)c(Cc2ccccc2SC)cc1C` [Compound 23, N′-(2,5-dimethyl-4-(2-(methylthio)benzyl)phenyl)-N-ethyl-N-methylformimidamide]: the inhibition of growth at 300 ppm was above 70% in the experiment on Septoria lycopersici; above 75% in the experiment on Pyricularia oryzae [1]; above 80% with Botrytis cinerea; above 75% in the experiment on Alternaria solani [3]; 75% in the experiment on Fusarium culmorum [4]; above 80% in the experiment with Colletotrichum capsici. Also, the inhibition of growth at 300 ppm in the experiment on Rhizoctonia solani was above 80%. Further, the pest or weed control at 500 ppm with Alternaria solani [2], in the experiment with Botrytis cinera and in the experiment on Fusarium culmorum [6] was 70 to 100% throughout.
Consider `CCN(C)C=Nc1cc(C)c(Cc2cccc(Br)c2F)cc1C` [Compound 27, N′-(4-(3-bromo-2-fluorobenzyl)-2,5-dimethylphenyl)-N-ethyl-N-methylformimidamide], for which the inhibition of growth at 300 ppm with Septoria lycopersici is above 70%; in the experiment on Pyricularia oryzae [1], above 75%; with Botrytis cinerea, above 80%; in the experiment on Alternaria solani [3] it was above 75%; with Fusarium culmorum [4], 75%; in the experiment on Colletotrichum capsici, above 80%. Moreover, the inhibition of growth at 300 ppm in the experiment on Rhizoctonia solani is above 80%. Further, the pest or weed control at 500 ppm with Alternaria solani [2] and in the experiment on Botrytis cinera was 70 to 100% each time.
